The target of one data set is T1, Cytochrome P450 2B6 (Homo sapiens, UniProt P20813).
T1 sequence (P20813 whole entry): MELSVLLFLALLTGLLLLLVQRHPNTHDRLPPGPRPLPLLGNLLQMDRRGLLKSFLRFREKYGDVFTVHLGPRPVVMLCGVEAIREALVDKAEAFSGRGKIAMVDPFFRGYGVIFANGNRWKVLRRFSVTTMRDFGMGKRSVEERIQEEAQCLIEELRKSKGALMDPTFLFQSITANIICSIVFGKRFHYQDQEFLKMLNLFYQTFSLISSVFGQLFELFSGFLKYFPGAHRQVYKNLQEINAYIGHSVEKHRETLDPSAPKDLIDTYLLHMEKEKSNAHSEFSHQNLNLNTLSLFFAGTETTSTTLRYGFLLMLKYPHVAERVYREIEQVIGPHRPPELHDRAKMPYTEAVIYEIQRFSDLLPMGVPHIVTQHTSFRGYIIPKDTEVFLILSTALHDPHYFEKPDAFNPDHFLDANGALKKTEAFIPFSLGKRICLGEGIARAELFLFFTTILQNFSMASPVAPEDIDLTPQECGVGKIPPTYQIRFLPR
Put plainly: Inhibition of human recombinant CYP2B6 incubated for 15 mins prior to substrate addition measured after 30 mins by spectrophotometry. The class given is ADME.

For a further data set, the target named is Cytochrome P450 3A4 (Homo sapiens, UniProt P08684). Put plainly: Inhibition of human recombinant CYP3A4 incubated for 15 mins prior to substrate addition measured after 30 mins by spectrophotometry. The class given is ADME.
Chain of Cytochrome P450 3A4 (P08684 whole entry): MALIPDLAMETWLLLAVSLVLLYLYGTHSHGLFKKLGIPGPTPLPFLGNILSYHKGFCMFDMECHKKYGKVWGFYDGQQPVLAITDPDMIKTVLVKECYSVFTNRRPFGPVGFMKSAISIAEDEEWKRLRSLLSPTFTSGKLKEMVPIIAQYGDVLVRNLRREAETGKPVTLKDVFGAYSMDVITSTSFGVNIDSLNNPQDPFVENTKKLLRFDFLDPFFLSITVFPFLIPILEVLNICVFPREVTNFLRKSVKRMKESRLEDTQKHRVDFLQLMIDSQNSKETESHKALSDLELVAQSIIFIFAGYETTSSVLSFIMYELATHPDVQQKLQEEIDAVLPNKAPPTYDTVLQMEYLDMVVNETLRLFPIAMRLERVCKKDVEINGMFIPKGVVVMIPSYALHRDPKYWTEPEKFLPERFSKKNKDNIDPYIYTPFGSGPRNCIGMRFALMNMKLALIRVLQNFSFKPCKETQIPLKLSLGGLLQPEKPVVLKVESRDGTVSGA
For data set [1], the target named is T2, Prostaglandin D2 receptor 2 (Homo sapiens, UniProt Q9Y5Y4).
T2 sequence (Q9Y5Y4 whole entry): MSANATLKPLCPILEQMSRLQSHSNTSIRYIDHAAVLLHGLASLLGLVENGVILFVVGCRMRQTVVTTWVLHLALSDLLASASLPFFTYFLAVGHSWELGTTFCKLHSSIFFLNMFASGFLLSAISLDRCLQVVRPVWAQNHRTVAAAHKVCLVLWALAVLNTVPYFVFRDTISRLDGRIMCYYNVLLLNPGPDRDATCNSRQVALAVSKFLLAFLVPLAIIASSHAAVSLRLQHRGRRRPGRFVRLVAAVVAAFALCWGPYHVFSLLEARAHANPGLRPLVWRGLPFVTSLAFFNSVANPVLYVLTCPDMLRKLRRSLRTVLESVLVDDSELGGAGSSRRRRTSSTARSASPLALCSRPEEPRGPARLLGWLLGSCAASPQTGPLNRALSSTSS
The data set can be described thus: Displacement of [3HPGD2 from human CRTH2 receptor expressed in CHO cell membrane after 90 mins by scintillation proximity assay. The class given is cell membranes. A general note: SPA uses beads or plates that emit light when radiolabelled molecules are held near them.

In the next data set the target is Cytochrome P450 2D6 (Homo sapiens, UniProt P10635). Put plainly: Inhibition of human recombinant CYP2D6 incubated for 15 mins prior to substrate addition measured after 30 mins by spectrophotometry. The class given is ADME.
Chain of Cytochrome P450 2D6 (P10635 whole entry): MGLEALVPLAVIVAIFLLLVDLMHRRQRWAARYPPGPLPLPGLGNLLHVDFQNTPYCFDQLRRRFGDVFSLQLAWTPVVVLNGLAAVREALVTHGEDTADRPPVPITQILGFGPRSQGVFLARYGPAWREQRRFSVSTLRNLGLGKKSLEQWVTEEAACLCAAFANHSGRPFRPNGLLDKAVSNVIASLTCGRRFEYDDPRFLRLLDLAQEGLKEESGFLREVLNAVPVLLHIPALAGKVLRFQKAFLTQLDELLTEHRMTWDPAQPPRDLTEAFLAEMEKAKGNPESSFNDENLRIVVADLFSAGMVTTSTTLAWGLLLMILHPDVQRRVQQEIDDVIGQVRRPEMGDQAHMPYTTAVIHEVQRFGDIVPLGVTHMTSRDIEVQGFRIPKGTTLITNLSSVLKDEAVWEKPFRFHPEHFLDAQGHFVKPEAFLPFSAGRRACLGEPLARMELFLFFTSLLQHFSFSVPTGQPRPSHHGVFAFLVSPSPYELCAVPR
The target in a further data set is T3, Cytochrome P450 1A2 (Homo sapiens, UniProt P05177).
T3 sequence (P05177 whole entry): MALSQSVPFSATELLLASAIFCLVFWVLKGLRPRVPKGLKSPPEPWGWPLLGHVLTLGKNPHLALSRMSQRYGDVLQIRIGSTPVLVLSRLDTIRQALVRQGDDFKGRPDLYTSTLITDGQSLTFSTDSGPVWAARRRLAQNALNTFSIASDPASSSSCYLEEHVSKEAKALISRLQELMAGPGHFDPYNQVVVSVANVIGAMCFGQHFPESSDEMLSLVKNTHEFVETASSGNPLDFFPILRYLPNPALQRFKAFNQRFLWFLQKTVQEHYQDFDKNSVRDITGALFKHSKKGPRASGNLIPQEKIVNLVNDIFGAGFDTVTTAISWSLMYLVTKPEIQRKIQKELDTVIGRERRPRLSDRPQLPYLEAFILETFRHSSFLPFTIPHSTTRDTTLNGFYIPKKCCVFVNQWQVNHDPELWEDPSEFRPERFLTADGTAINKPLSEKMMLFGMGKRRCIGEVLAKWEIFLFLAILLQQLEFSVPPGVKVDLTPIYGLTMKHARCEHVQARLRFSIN
The data set can be described thus: Inhibition of human recombinant CYP1A2 incubated for 15 mins prior to substrate addition measured after 30 mins by spectrophotometry. The class given is ADME.

Data set [2] addresses T4, Prostaglandin D2 receptor 2 (Homo sapiens) (UniProt Q9Y5Y4).
T4 sequence (whole entry): T2 sequence (Q9Y5Y4 whole entry)
The data set can be described thus: Agonist activity at human CRTH2 receptor expressed in CHO cell membrane assessed as induction of [35S]GTPgammaS binding at 20 uM after 30 mins by microbeta scintillation counting relative to PGD2. The class given is functional, cell membranes. Background: Binding of GTPγS marks nucleotide exchange on a G protein.

Data set [3] addresses T2, Prostaglandin D2 receptor 2. Put plainly: Antagonist activity at human CRTH2 receptor expressed in CHO cell membrane assessed as inhibition of PGD2-induced [35S]GTPgammaS binding after 30 mins by microbeta scintillation counting. The class given is functional, cell membranes.
The target in data set [4] is T4, Prostaglandin D2 receptor 2 (Homo sapiens). The data set can be described thus: Antagonist activity at human CRTH2 receptor expressed in CHO cell membrane assessed as inhibition of PGD2-induced [35S]GTPgammaS binding at 2 uM after 30 mins by microbeta scintillation counting relative to control. The class given is functional, cell membranes.
A short description of data set [5]: Intrinsic clearance in rat liver microsomes assessed per mg protein at 1 uM up to 45 mins by LC/MS analysis. The class given is ADME, Microsome. As to conditions: read-out: CLH. (In general: Liver microsomes are a subcellular fraction often used to study metabolism.)
The next data set has as its target T5, Cytochrome P450 2C8 (Homo sapiens, UniProt P10632).
T5 sequence (P10632 whole entry): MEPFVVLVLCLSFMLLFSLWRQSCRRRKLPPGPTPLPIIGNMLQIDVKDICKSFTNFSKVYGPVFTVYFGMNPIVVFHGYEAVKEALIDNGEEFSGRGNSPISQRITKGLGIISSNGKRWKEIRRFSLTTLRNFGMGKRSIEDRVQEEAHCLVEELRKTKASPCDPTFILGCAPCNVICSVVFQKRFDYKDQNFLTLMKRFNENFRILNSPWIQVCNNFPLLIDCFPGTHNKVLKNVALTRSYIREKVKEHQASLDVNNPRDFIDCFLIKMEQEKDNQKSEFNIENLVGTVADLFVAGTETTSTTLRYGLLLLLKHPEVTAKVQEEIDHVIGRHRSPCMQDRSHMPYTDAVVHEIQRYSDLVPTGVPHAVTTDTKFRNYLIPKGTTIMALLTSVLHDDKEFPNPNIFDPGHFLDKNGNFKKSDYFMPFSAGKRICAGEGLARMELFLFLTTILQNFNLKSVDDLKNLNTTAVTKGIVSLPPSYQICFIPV
The data set can be described thus: Inhibition of human recombinant CYP2C8 incubated for 15 mins prior to substrate addition measured after 30 mins by spectrophotometry. The class given is ADME.

The target in another data set is Cytochrome P450 2C9 (Homo sapiens, UniProt P11712). Put plainly: Inhibition of human recombinant CYP2C9 incubated for 15 mins prior to substrate addition measured after 30 mins by spectrophotometry. The class given is ADME.
Chain of Cytochrome P450 2C9 (P11712 whole entry): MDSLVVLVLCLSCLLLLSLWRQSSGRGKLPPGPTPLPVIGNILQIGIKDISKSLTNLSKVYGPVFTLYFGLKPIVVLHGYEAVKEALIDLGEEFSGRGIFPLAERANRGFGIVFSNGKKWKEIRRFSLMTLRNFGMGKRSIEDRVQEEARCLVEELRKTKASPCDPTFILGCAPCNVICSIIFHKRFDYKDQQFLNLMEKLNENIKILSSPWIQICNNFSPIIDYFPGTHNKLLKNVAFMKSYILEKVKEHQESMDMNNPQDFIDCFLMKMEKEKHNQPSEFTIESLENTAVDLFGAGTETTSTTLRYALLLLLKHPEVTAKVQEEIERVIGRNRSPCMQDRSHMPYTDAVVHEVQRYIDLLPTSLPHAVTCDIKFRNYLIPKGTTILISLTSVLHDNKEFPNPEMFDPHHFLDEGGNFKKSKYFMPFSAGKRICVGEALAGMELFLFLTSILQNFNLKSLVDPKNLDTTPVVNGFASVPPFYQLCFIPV
A short description of data set [6]: Intrinsic clearance in human liver microsomes assessed per mg protein at 1 uM up to 45 mins by LC/MS analysis. The class given is ADME, Microsome. The settings on record: read-out: CLH.
A further data set has as its target Cytochrome P450 2C19 (Homo sapiens, UniProt P33261). Put plainly: Inhibition of human recombinant CYP2C19 incubated for 15 mins prior to substrate addition measured after 30 mins by spectrophotometry. The class given is ADME.
The nature of data set [7]: Half life in C57BL/6 mouse at 1 mg/kg, iv. The class given is ADME, organism-based. The settings on record: in vivo. Also on record: dose 1 mg/kg, route intravenous.
The nature of data set [8]: Apparent permeability across human Caco2 cells at 1 uM after 2 hrs by LC/MS analysis. As to conditions: Caco-2. The class given is ADME, cell-based.
Data set [9] in a line: Volume of distribution at steady state in C57BL/6 mouse at 1 mg/kg, iv and 5 mg/kg, po. The settings on record: in vivo, read-out: Vdss. The class given is ADME, organism-based.

Experimental findings from ChEMBL document CHEMBL2034935, “Discovery of a Novel Series of CRTH2 (DP2) Receptor Antagonists Devoid of Carboxylic Acids” (ACS Med Chem Lett, 2011) are described below.

SMILES strings stand for the structures. A value given as a limit tells only on which side of the number the result lay.

By IC50 is commonly meant the concentration that inhibits the measured activity by half. What is called Ki is a measure of affinity in units of concentration, obtained from inhibition or displacement. The low end stands for higher affinity, the high end for lower affinity. Usually Emax stands for the maximal effect, on the per cent scale that the assay sets. In general, inhibition refers to the change of the read-out against control, counted positive when it falls. For orientation: half-life means how long it takes for the measured level to halve. The low end stands for fast loss, the high end for slow loss. By Papp is commonly meant the rate of passage across a membrane or cell layer, normalised by area and donor concentration.

Chain of Cytochrome P450 2C19 (P33261 whole entry): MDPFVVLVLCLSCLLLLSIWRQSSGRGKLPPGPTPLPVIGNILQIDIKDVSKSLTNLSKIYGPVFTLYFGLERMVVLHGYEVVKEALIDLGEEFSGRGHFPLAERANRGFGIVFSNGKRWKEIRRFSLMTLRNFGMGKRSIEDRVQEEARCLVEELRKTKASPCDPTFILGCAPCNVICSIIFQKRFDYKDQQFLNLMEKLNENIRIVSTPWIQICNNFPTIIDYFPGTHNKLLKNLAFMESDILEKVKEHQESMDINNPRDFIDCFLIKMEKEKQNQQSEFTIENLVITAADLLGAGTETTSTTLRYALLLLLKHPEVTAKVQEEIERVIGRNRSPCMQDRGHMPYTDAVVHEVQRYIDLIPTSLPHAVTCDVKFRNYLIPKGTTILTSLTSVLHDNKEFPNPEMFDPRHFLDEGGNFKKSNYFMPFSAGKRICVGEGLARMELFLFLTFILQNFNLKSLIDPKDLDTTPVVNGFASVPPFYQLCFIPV

Take `CCC(=O)N(Cc1ccc(C(F)(F)F)cc1)c1cccc(-c2nnn[nH]2)c1`: the IC50 on Cytochrome P450 2B6, on Cytochrome P450 3A4, on Cytochrome P450 2D6 and at Cytochrome P450 1A2 was > 10 µM in each case. The Ki in data set [1] is 0.11 µM.
Regarding `CCCCC(=O)N(Cc1cccc(OC(F)(F)F)c1)c1cc(F)cc(-c2nnn[nH]2)c1`, the IC50 at Cytochrome P450 2B6, at Cytochrome P450 3A4, on Cytochrome P450 2D6 and on Cytochrome P450 1A2 was > 10 µM throughout. In data set [1], this compound displayed a Ki of 0.0045 µM.
`CCCCC(=O)N(Cc1ccc(OC(F)(F)F)cc1)c1cc(F)cc(-c2nnn[nH]2)c1`: the IC50 at Cytochrome P450 2B6, on Cytochrome P450 3A4, at Cytochrome P450 2D6 and at Cytochrome P450 1A2 was > 10 µM each time. The compound also gave a Ki in data set [1] of 0.0077 µM.
Regarding `CCCCC(=O)N(Cc1ccc(OC(F)(F)F)cc1)c1cc(Cl)cc(-c2nnn[nH]2)c1`, the IC50 is > 10 µM on Cytochrome P450 2B6; > 10 µM at Cytochrome P450 3A4; > 10 µM on Cytochrome P450 2D6; > 10 µM at Cytochrome P450 1A2; 0.02 µM in [3]. This compound also displayed a Ki in data set [1] of 0.019 µM. For the same compound, in [2], the Emax was -10%. The inhibition in data set [4] was found to be 112%.
`CCC(=O)N(Cc1ccc(OC(F)(F)F)cc1)c1cc(F)cc(-c2nnn[nH]2)c1`: the IC50 on Cytochrome P450 2B6 was > 10 µM; at Cytochrome P450 3A4, > 10 µM; on Cytochrome P450 2D6, > 10 µM; at Cytochrome P450 2C8, 0.043 µM; on Cytochrome P450 2C9, 0.2 µM; on Cytochrome P450 1A2, > 10 µM. Also, the IC50 at Cytochrome P450 2C19 came to 0.051 µM. In data set [1], this compound had a Ki of 0.0069 µM. Further, the microsomal CLint at 1 µM in data set [5] is 12 µL/min/mg; in data set [6], < 10 µL/min/mg.
Consider `CCCCC(=O)N(Cc1ccc(C(F)(F)F)cc1)c1cc(F)cc(-c2nnn[nH]2)c1`, for which the IC50 on Cytochrome P450 2B6, on Cytochrome P450 3A4, on Cytochrome P450 2D6 and on Cytochrome P450 1A2 was > 10 µM throughout. The Ki in [1] was found to be 0.0024 µM.
For the compound `CCC(=O)N(Cc1cccc(C(F)(F)F)c1)c1cccc(-c2nnn[nH]2)c1`, the IC50 on Cytochrome P450 2B6, on Cytochrome P450 3A4, at Cytochrome P450 2D6 and on Cytochrome P450 1A2 was > 10 µM throughout. For the same compound, the Ki in [1] worked out at 0.22 µM.
Consider `CCC(=O)N(Cc1ccc(C(F)(F)F)cc1)c1cc(F)cc(-c2nnn[nH]2)c1`, for which the IC50 at Cytochrome P450 2B6 was > 10 µM; on Cytochrome P450 3A4, > 10 µM; at Cytochrome P450 2D6 it was > 10 µM; on Cytochrome P450 2C8, 0.086 µM; at Cytochrome P450 2C9 it was 0.28 µM; on Cytochrome P450 1A2 it was > 10 µM. For the same compound, the IC50 is 0.038 µM at Cytochrome P450 2C19 and 0.037 µM in data set [3]. The same compound showed a Ki in data set [1] of 0.0057 µM. In addition, in data set [2], the Emax is -8%. The microsomal CLint at 1 µM in data set [5] and in data set [6] was < 10 µL/min/mg throughout. In data set [7], the half-life was 1.4 h. Also, the Papp at 2 h, 1 µM in [8] is 3 ×10⁻⁶ cm/s. Moreover, the Vd in data set [9] amounted to 0.9 L/kg. Moreover, the inhibition in [4] was found to be 105%.
